From PubChem BioAssay (NCI)
Several values for one entry are separate records, joined by “and”; a condition that tells them apart may be missing. Identical values can stand only once.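 Cultured in 96-well plates, cells were exposed to test compound for 48 hours across five concentrations. GI50: concentration for 50% inhibition of growth. TGI marks complete inhibition of growth.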

Assays:
Assay in all cases: NCI-60 cell line screen, 48 h
HOP-62 NSCLC = tested on: HOP-62 NSCLC
IGROV1 ovarian = tested on: IGROV1 ovarian
M14 melanoma = tested on: M14 melanoma
SK-MEL-28 melanoma = tested on: SK-MEL-28 melanoma
SK-OV-3 ovarian = tested on: SK-OV-3 ovarian
U251 CNS = tested on: U251 CNS
UACC-62 melanoma = tested on: UACC-62 melanoma
MOLT-4 leukemia = tested on: MOLT-4 leukemia
SF-268 CNS = tested on: SF-268 CNS
SN12C renal = tested on: SN12C renal

SMILES	GI50 (HOP-62 NSCLC)	TGI (HOP-62 NSCLC)	GI50 (IGROV1 ovarian)	TGI (IGROV1 ovarian)	GI50 (M14 melanoma)	TGI (M14 melanoma)	GI50 (SK-MEL-28 melanoma)	TGI (SK-MEL-28 melanoma)	GI50 (SK-OV-3 ovarian)	TGI (SK-OV-3 ovarian)	GI50 (U251 CNS)	TGI (U251 CNS)	GI50 (UACC-62 melanoma)	TGI (UACC-62 melanoma)	TGI (MOLT-4 leukemia)	TGI (SF-268 CNS)	TGI (SN12C renal)	GI50 (SF-268 CNS)	GI50 (SN12C renal)	GI50 (MOLT-4 leukemia)
CC(C)c1ccc2c(c1)CC[C@@H]1[C@@](C)(C(=O)O)CCC[C@]21C	10.8 µM	22.7 µM	5.55 µM	29 µM	10.4 µM	22.1 µM	5.8 µM	22.3 µM	4.49 µM	21.4 µM	4.54 µM	18.3 µM	4.87 µM	18.4 µM	–	–	–	–	–	–
CS(=O)(=O)Nc1ccc2c(c1)oc(=O)c1ccccc12	–	> 100 µM	–	> 100 µM	–	> 100 µM	–	> 100 µM	–	–	–	> 100 µM	–	> 100 µM	> 100 µM	> 100 µM	> 100 µM	–	–	–
CCOC(=O)C1(C#N)C(c2ccccc2)CC(O)(c2ccc(OC)cc2)C(C(=O)c2ccc(OC)cc2)C1c1ccccc1 (stereo unspecified)	–	> 100 µM	–	> 100 µM	–	> 100 µM	–	> 100 µM	–	> 100 µM	–	> 100 µM	–	> 100 µM	> 100 µM	> 100 µM	> 100 µM	–	–	–
CN(C)c1ccc(C(C=C2c3ccccc3Sc3ccccc32)=C(C#N)C#N)cc1	–	> 100 µM	–	> 100 µM	–	> 100 µM	–	> 100 µM	–	> 100 µM	–	> 100 µM	–	> 100 µM	> 100 µM	> 100 µM	> 100 µM	–	–	–
C=C1C(=O)OC2CCN3CC=C(COC(=O)C(C)(O)C4(CO4)C1C)C23 (stereo unspecified)	–	–	–	> 100 µM	–	> 100 µM	–	> 100 µM	–	> 100 µM	–	> 100 µM	–	> 100 µM	> 100 µM	> 100 µM	> 100 µM	–	–	–
C=C(CNCc1ccccc1)c1ccc(C(=O)Nc2ccccc2N)cc1	4.57 µM	> 100 µM	3.21 µM	36.9 µM	29.8 µM	> 100 µM	11.7 µM	> 100 µM	4.22 µM	22.8 µM	9.86 µM	> 100 µM	3.76 µM	25.3 µM	–	45.6 µM	14.8 µM	7.43 µM	0.583 µM	–
CC(C)(C)CC(C)(C)c1cc2c(O)c(c1)Cc1cc(C(C)(C)CC(C)(C)C)cc(c1O)Cc1cc(C(C)(C)CC(C)(C)C)cc(c1O)Cc1cc(C(C)(C)CC(C)(C)C)cc(c1O)C2	–	> 100 µM	–	> 100 µM	–	> 100 µM	–	> 100 µM	–	–	–	> 100 µM	–	> 100 µM	> 100 µM	> 100 µM	> 100 µM	–	–	–
O=C1/C(=C/c2ccc(Br)cc2)COc2ccc(O)c(O)c21	–	–	0.631 µM	2.16 µM	1.41 µM	3.47 µM	1.55 µM	3.25 µM	2.63 µM	11.6 µM	0.588 µM	2.04 µM	1.07 µM	2.4 µM	> 100 µM	3.4 µM	2.32 µM	1.26 µM	0.617 µM	0.431 µM
O=C(Nc1ccc(Cl)cc1F)c1ccccc1O	2.74 µM	21.7 µM	1.43 µM	64.3 µM	3.45 µM	16.7 µM	3.9 µM	21.6 µM	–	–	3.42 µM	> 100 µM	2.08 µM	9.24 µM	13.5 µM	> 100 µM	8.71 µM	3.63 µM	2.24 µM	3.49 µM
CCN(CC)CCOc1ccc(-c2nc3cc(Cl)ccc3s2)cc1	1.74 µM	3.25 µM	1.85 µM	3.61 µM	1.73 µM	3.21 µM	1.99 µM	3.94 µM	1.77 µM	3.84 µM	1.58 µM	2.99 µM	1.78 µM	3.33 µM	10.9 µM	–	4.79 µM	–	2.04 µM	2.24 µM
COC(=O)C(=Cc1cc(OC)ccc1OC)C(=O)OC	–	64.1 µM	–	56.9 µM	–	36.6 µM	–	82.9 µM	–	76.2 µM	–	42.9 µM	–	73.7 µM	> 100 µM	> 100 µM	64.3 µM	–	–	–
Cc1cc([N+](=O)[O-])ccc1Nc1cccc(Cl)c1C	–	28 µM	–	27.6 µM	–	29.1 µM	–	32.1 µM	–	47.7 µM	–	29.8 µM	–	27.2 µM	33 µM	35.8 µM	32.1 µM	–	–	–
Cc1ccc(C)c(C2=C(c3cn(C)c4ccccc34)C(=O)NC2=O)c1	12.1 µM	> 25 µM	24.8 µM	> 25 µM	> 25 µM	> 25 µM	> 25 µM	> 25 µM	15.1 µM	> 25 µM	> 25 µM	> 25 µM	> 25 µM	> 25 µM	> 25 µM	> 25 µM	> 25 µM	> 25 µM	> 25 µM	12.4 µM
Cc1ccc(Cc2c(=O)[nH]nc3ccccc23)cc1	–	> 100 µM	–	> 100 µM	–	> 100 µM	–	> 100 µM	–	> 100 µM	–	–	–	> 100 µM	> 100 µM	> 100 µM	> 100 µM	–	–	–
COc1cnc2c(c1)C(=O)c1c-2n(CCCNC(C)C)c(=O)c2cc(Cl)ccc12	0.0709 µM	1.53 µM	0.756 µM	2.32 µM	–	–	–	–	–	–	0.0654 µM	1.53 µM	0.303 µM	1.91 µM	0.452 µM	1.94 µM	2.11 µM	0.148 µM	0.417 µM	0.0397 µM
CC(C)N(C(=O)C12C3C4C5(C#N)C3C1(C#N)C5C42I)C(C)C (stereo unspecified)	–	> 100 µM	–	> 100 µM	–	> 100 µM	–	> 100 µM	–	> 100 µM	–	> 100 µM	–	> 100 µM	> 100 µM	> 100 µM	> 100 µM	–	–	–
CCN(CC)CCC(CNc1ccnc2cc(Cl)ccc12)c1ccc(OC)cc1 (stereo unspecified)	14.4 µM and 9.7 µM	39.2 µM and 34 µM	10.7 µM and 4.28 µM	39.8 µM and 24.2 µM	1.86 µM and 1.88 µM	3.61 µM and 3.73 µM	1.75 µM and 1.87 µM	3.4 µM and 3.42 µM	13.1 µM and 14.1 µM	33.4 µM and 46 µM	4.91 µM and 3.52 µM	17.2 µM and 11.5 µM	2.31 µM and 1.86 µM	5.02 µM and 4.01 µM	41.4 µM and 50.9 µM	18.4 µM and 21.4 µM	34.3 µM and 37.8 µM	4.19 µM and 5.23 µM	12.9 µM and 11.4 µM	6.77 µM and 4.68 µM
